{"source": "patent US20200282009A1", "about": "“METHODS OF TREATING DISEASES ASSOCIATED WITH VASCULAR SMOOTH MUSCLE CELL PROLIFERATION” (BioLineRx Ltd., priority 2017, published 2020)", "key": {"SK-N-BE(2)-CXCR4 cells": {"test_system": "SK-N-BE(2)-CXCR4 cells", "test": "Cell survival assay (PI staining, FACS)", "format": "cell-based, human", "details": "SK-N-BE(2)-CXCR4 vs native cell line; 0, 10 and 20 μM, 24 hours", "method": "A total of 1×10^5 cells/mL were cultured in 24-well plates with […] RPMI 1640 medium supplemented with 10% FCS. 24 hours later, the medium was changed to RPMI 1640 supplemented with either 1% FCS, with BL-8040 or AMD3100 or ABT199. Then 24 hours later, the cells were harvested, washed, and stained with PI (Sigma). The number of live cells was counted and analyzed using FACS analysis.\nIn order to stably overexpress CXCR4, SK-N-BE(2) cells were transduced with the lentiviral bicistronic vector harboring a CXCR4 expression cassette. This was done using a three-plasmid system: pHR′-CMVCXCR4-IRES-GFP-WPRE; envelope coding plasmid VSV-G and a packaging construct CMVDR8.91 according to previously published protocol (23). For transduction of SK-N-BE(2) cells, 1 ml of viral supernatant was used, which is equivalent to an m.o.i. of ˜9."}, "SK-N-BE(2) cells": {"test_system": "SK-N-BE(2) cells", "test": "Soft agar colony assay", "format": "cell-based, human", "details": "BL-8040 20 μM or anti-CXCR4 1 μg/ml, 14 days", "method": "(§1) An agar base layer was prepared as follows: 45 mL RPMI plus 12% FCS was mixed with 15 mL RPMI 32 plus 12% FCS and 15 mL 2.5% agar in double-distilled water. The tumor cells were suspended in RPMI plus 10% FCS. Cell suspension was mixed in a ratio of 1:3 with the agar base solution. This mixture was then plated on top of a preformed solid agar base. CXCL12 (100 ng/mL) or BL-8040 (20 μM) or anti-CXCR4 (1 μg/ml) were added to the mixture. Fourteen days later, the number of colonies was counted in 10 different fields."}, "Shy-SY5Y cells": {"test_system": "Shy-SY5Y cells", "test": "Soft agar colony assay", "format": "cell-based, human", "details": "BL-8040 20 μM or anti-CXCR4 1 μg/ml, 14 days", "method": "as §1"}, "[1]": {"test_system": "SK-N-BE(2) orthotopic xenograft tumors", "test": "In-vivo orthotopic NB model (tumor growth, weight, survival)", "parameters": "species or system NSG mice", "method": "Human SK-N-BE(2) cells were orthotopically injected into the left adrenal gland of 6-8 weeks old NSG mice. A 27-gauge needle was introduced through the left adrenal fat pad and 5×10∧5 cells/20 μl PBS were inoculated to the adrenal gland. NSG mice were maintained under defined flora conditions at the Hebrew University Pathogen-Free Animal Facility. Tumor growth and volume were monitored bi-weekly by using T2-weighted MRI until tumors reached the ethical limit volume and mice were randomized to drug-treated or control mice. Mice in the treated group were subjected to 2 treatment protocols. In the first treatment protocol BL-8040 (400 μg) was injected daily, starting three days following inoculation, and was continued for 35 days. In the second treatment protocol mice were monitored for 21 days. As of day 7, mice were treated with a daily injection of BL-8040 (400 μg) for 14 consecutive days.\nMagnetic resonance imaging (MRI) scans were performed on a horizontal 4.7T Biospec spectrometer (Bruker Medical) with a 3.5-cm birdcage coil. Mice were anesthetized with Isoflurane (Nicholas Piramal, India; 2% in a mixture of 30:70 O2:N2O). Tumor volume was assessed bi-weekly using T2-weighted (T2W) fast spin echo images (repetition time=2,000 ms; echo time=37 ms; in plane resolution=117 μm; slice thickness-1 mm). Tumor volume was manually assessed using Analyze-7.0 (BIR). For each subject, an exponential growth curve was fitted to the tumor volume data points (Matlab software).\nData are presented as means±SD or ±SE. Statistical comparison of means was performed by a two-tailed unpaired Student's t test. Differences with a P<0.05 were determined as statistically significant. Statistical analysis of NB tumor mice survival following early treatment was performed using the Mantel-cox test."}, "[2]": {"test_system": "miR-15a, miR-16-1, BCL-2, CCND1, c-myc in SK-N-BE(2) cells", "test": "qPCR of treated cells in-vitro", "format": "cell-based, human", "details": "20 μM, 24 hours", "method": "(§2) Total RNA from various cell lines and mouse tissues was isolated using Trizol reagent (Invitrogen) according to the manufacture's protocol, followed by DNaseI treatment using the DNaseI Kit where needed (Ambion). The concentrations were measured by Nanodrop (ND spectrophotometer) and the integrity was analyzed by gel electrophoreses on 1% agarose gel.\n(§3) cDNA was synthesized from 0.5-1 μg total RNA using the Quanta Biosciences qScript™ cDNA Synthesis Kit (95047-100) for mRNA analysis, and using the qScript™ microRNA cDNA Synthesis Kit (95107-100) for miRNAs analysis. Quantiative PCR (qPCR) of miRNAs and mRNA was performed using the CFX384, C1000 touch thermal cycler (Bio-Rad) and a SYBR Green PCR Kit: Quanta Cat. #84018 and #84071, respectively. The fold expression and statistical significance were calculated using the 2-ΔΔ Ct method. All experiments were performed in triplicate."}, "[3]": {"test_system": "miR-15a, miR-16-1, BCL-2, CCND1, c-myc in Shy-SY5Y cells", "test": "qPCR of treated cells in-vitro", "format": "cell-based, human", "details": "20 μM, 24 hours", "method": "as §2, §3"}, "[4]": {"test_system": "CXCR4-expressing malignancies", "details": "multiple myeloma, AML, CML, non-small cell lung cancer, metastatic breast cancer; cited from earlier work"}}, "note": "[ ]: non-standard residue; d: D form. The star is where a group is joined. Benzoyl(4-F) = O=C(c1ccc(F)cc1)*; Cit = NC(=O)NCCC[C@H](N)C(=O)O"}
{"substance": "4F-benzoyl-Arg-Arg-Nal-Cys-Tyr-Cit-Lys-DLys-Pro-Tyr-Arg-Cit-Cys-Arg-NH2 ({Benzoyl(4-F)}-RR[Nal]CY[Cit]K[dK]PYR[Cit]CR-NH2; not fully specified; printed as 4F-benzoyl-Arg-Arg-Nal-Cys-Tyr-Cit-Lys-DLys-Pro-Tyr-Arg-Cit-Cys-Arg-NH2; cysteine pairing not given here) [BL-8040]", "values": [{"measurement": "sensitivity to BL-8040 treatment in-vitro (viability)", "setting": "SK-N-BE(2)-CXCR4 cells", "value": "increased sensitivity"}, {"measurement": "colony formation", "setting": "SK-N-BE(2) cells", "value": "reduces colony formation"}, {"measurement": "colony formation", "setting": "Shy-SY5Y cells", "value": "reduces colony formation"}, {"measurement": "reduction in tumor weight", "setting": "[1]; 400 μg s.c. daily for 14 days from day 7, harvested day 21", "value": 3, "unit": "fold"}, {"measurement": "survival of animals, average", "setting": "[1]; 400 μg s.c. daily for 35 days from day 3, controls 35 days", "value": 61, "unit": "days"}, {"measurement": "tumor growth (tumor volume, MRI)", "setting": "[1]; 400 μg s.c. daily for 35 days from day 3, exponential growth after discontinuation", "value": "tumor growth attenuation"}, {"measurement": "BCL-2 mRNA (qPCR)", "setting": "[2]", "value": "reduced"}, {"measurement": "CCND1 mRNA (qPCR)", "setting": "[2]", "value": "reduced only in the Shy-SY5Y cells"}, {"measurement": "c-myc mRNA (qPCR)", "setting": "[2]", "value": "reduced significantly"}, {"measurement": "miR-15a level (qPCR)", "setting": "[2]", "value": "significant increase"}, {"measurement": "miR-16-1 level (qPCR)", "setting": "[2]", "value": "not miR-16-1"}, {"measurement": "BCL-2 mRNA (qPCR)", "setting": "[3]", "value": "reduced"}, {"measurement": "CCND1 mRNA (qPCR)", "setting": "[3]", "value": "reduced only in the Shy-SY5Y cells"}, {"measurement": "c-myc mRNA (qPCR)", "setting": "[3]", "value": "reduced significantly"}, {"measurement": "miR-15a level (qPCR)", "setting": "[3]", "value": "significant increase"}, {"measurement": "miR-16-1 level (qPCR)", "setting": "[3]", "value": "not miR-16-1"}, {"measurement": "effects on CXCR4-expressing malignancies", "setting": "[4]", "value": "toxic effects"}]}
